This note sets out measurements from patent EP0939649B1, “ADDITIVE, IN PARTICULAR IN THE FORM OF AN EMULSION CONTAINING A TRIVALENT METAL CATION AND VACCINE COMPOSITION CONTAINING SAME” (priority 1996, dated 1998).

Data set [1] in a line: Local reactions (lesions and granulomas) at the injection site after subcutaneous injection in mice. It counts as in vivo, souris. The settings on record: 8 days after s.c. injection, 1000 µl, 10 µg BSA. The protocol: On a injecté à différents lots comprenant chacun 5 souris, une composition thérapeutique d'un volume de 1000 µl, comprenant 10 µg d'antigène (BSA), par voie sous-cutanée. On a évalué les réactions locales (lésions et granulomes) 8 jours après injection.

The test system of data set [2] is sérum albumine bovine (BSA). Briefly: Immunostimulant effect of adjuvants: IgG1/IgG2a antibody response in mice vaccinated subcutaneously with BSA antigen. The settings on record: 21 days after vaccination, 100 µl s.c. per mouse, 10 µg BSA, salts at optimal concentration; for réponse lgG2a: represents cellular response; for réponse lgG1: represents humoral response. It counts as in vivo, souris. The protocol:
Ces compositions thérapeutiques comprennent, à titre d'antigène de la sérum albumine bovine (BSA), Grade V, Sigma.
Ces compositions thérapeutiques (dose/souris) d'un volume de 100 µl mises en oeuvre comprenaient 10µg d'antigène et ont été injectées par voie sous-cutanée.
Les résultats ont été obtenus 21 jours après vaccination:
Les réponses IgG 1 sont représentatives de la réponse humorale,
Les réponses IgG 2a sont représentatives de la réponse cellulaire.

As to `CC(=O)[O-].[Al+3].[OH-].[OH-]` [C2H5AlO4 (forme soluble), acétate d'Aluminium soluble (C2H5AlO4)], the “réactions locales (lésions et granulomes)” value in data set [1] (souris 1), in data set [1] (souris 2), in data set [1] (souris 3) and in data set [1] (souris 5) was 0 each time. Moreover, the “réponse lgG2a” value in data set [2] stood at 8000. In addition, the “réponse lgG1” value in data set [2] is recorded as 64000.

Consider salicylate d'Aluminium, for which, in data set [2], the “réponse lgG2a” value came out at 6000 and the “réponse lgG1” value stood at 48000.

On to `[OH][Al]([OH])[OH]` [AlOH, hydroxyde d'Aluminium], for which, in data set [2], the “réponse lgG2a” value is less than 1000 and the “réponse lgG1” value was found to be 8000.

Turning to phosphate d'Aluminium [AlPO4], in data set [2], the “réponse lgG2a” value is less than 1000 and the “réponse lgG1” value is less than 1000.

As to `CC(=O)[O-].CC(=O)[O-].[Al+3].[OH-]` [C4H7AlO5 (forme insoluble), forme insoluble d'acétate d'Aluminium (C4H7AlO5)], in data set [2], the “réponse lgG2a” value is listed as less than 1000 and the “réponse lgG1” value is less than 1000.
